Among the data in the RepoRT retention time repository are LC retention time values, retold here.

This data set can be described thus: RP, Waters ACQUITY UPLC BEH C18, 50 × 2.1 mm, 1.7 µm, 35 °C, 0.25 mL/min, estimated dead time 0.44 min; A: water + 0.1% acetic acid, pH 3; B: acetonitrile; gradient (min/%B) 0/5 1.12/5 6.41/99.5 10.01/99.5. As to conditions: stereoisomer not certain.

Take `NC(Cc1ccccc1)C(=O)NC(Cc1ccccc1)C(=O)O` (stereo not given) [Phe-phe]: the LC retention time is 4 min.

As for `CCCCCCCCCC(=O)O` [decanoic acid], the LC retention time is 10 min.

Take `CCCCCCCCCCCCCCCCC(=O)O` [heptadecanoic acid]: the LC retention time is 15 min.

In the case of `O=C(O)CCCCCCCCCCCCCCC(=O)O` [hexadecanedioic acid], the LC retention time is 9.37 min.

Take `O=S(=O)([O-])Oc1c[nH]c2ccccc12.[K+]` [indoxyl sulfuric acid]: the LC retention time is 2 min.

With `COCC(NC(C)=O)C(=O)NCc1ccccc1` (stereo not given) [lacosamide], the LC retention time was 4 min.

For the molecule `CCCCCCCCCCCCCCCCCC(=O)OCC(O)COP(=O)([O-])OCC[N+](C)(C)C` (stereo not given) [lysoPC(18:0/0:0)], the LC retention time is 11.5 min.

As to `O=C(O)CCCCCCCC(=O)O` [nonanedioic acid], the LC retention time is 5 min.

With `NC(=O)CCC(NC(=O)Cc1ccccc1)C(=O)O` (stereo not given) [phenylacetylglutamine], the LC retention time is 2 min.

Take `NC(Cc1c[nH]c2ccccc12)C(=O)O` (stereo not given) [tryptophan]: the LC retention time was 1 min.
